Test results taken from patent US11306075B2, “Benzofuran, benzothiophene, and indole analogs that inhibit the formation of tau oligomers and their method of use” (OLIGOMERIX INC., priority 2016, dated 2022).
Where a name gives a salt, the structure may show the parent alone.

Target: recombinant human tau 4R2N (Homo sapiens (Human), UniProt P10636)
Experiment: Confirmatory Assay (CONFA), SDS-PAGE quantification of tau monomer and oligomers
Format: biochemical
Details: tau target 300 nM, Tris-HCl pH 7.4, room temperature 3 hours, compound 0.098 uM-50 uM
Procedure: Bacterial recombinant human tau 4R2N (the largest isoform of tau in the central nervous system, 441 amino acids in length, Seq ID 1) constructs with either 6×-His or StrepII N-terminal epitope tags were purified from bacterial lysate using denaturing conditions to prepare tau in its monomeric form.
CONFA Assay: Confirmatory Assay (CONFA) used as a secondary screen for confirming the mechanism of action of compounds identified as hits using the ALA assay. The assay is performed using a similar procedure as ALA except that it utilizes SDS-PAGE for visualization and quantification of tau monomer and aggregated species (dimer, trimer, tetramer, pentamer, etc.). Only a single construct of tau without epitope tags is necessary, but the assay can use the same target prepared for the ALA assay also.
For the CONFA assay, Tau target (300 nM) was prepared in buffer (Tris-HCl pH 7.4) and was incubated at room temperature for 3 hours with vehicle control (DMSO) and a dose range of a compound of the disclosure (0.098 uM-50 uM). Samples were mixed with an equal volume of 2×SDS sample buffer (4% SDS, 20% glycerol, 0.004% bromphenol blue, 125 mM Tris HCl, pH 7.0) to resolve tau monomer and disulfide-finked oligomers on 4-20% gradient polyacrylamide gels (Biorad) along with positive control (non-oligomerized tau target). The gels were stained with Oriole Fluorescent Gel Stain (BioRad) and imaged using the FluorChem R system (Protein Simple). AlphaView software (Protein Simple) was used for quantification of tau monomer and oligomers.

Sequence of recombinant human tau 4R2N (P10636 other isoform, or with tags, fused parts or gaps): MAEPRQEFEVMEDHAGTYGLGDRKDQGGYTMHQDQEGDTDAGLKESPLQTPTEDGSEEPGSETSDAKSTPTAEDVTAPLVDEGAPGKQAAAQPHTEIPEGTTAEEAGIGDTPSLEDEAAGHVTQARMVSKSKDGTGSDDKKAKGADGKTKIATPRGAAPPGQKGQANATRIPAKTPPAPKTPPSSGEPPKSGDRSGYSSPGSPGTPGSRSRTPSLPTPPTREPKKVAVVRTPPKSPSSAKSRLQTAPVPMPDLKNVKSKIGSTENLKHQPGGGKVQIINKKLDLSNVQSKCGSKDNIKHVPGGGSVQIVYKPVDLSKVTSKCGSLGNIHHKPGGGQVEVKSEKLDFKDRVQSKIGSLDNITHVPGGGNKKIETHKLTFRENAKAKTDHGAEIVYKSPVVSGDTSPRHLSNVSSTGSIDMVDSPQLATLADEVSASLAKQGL

IC50 | SMILES
1.31 µM | Cc1ccc(C(C)(O)CCc2oc3ccc(Br)cc3c2-c2ccc(C)o2)cc1 (stereo not shown) [Ex. 16, 4-(5-Bromo-3-(5-methylfuran-2-yl)benzofuran-2-yl)-2-p-tolylbutane-2-ol]
7.38 µM | CC(=O)CCc1oc2ccc(-c3cncnc3)cc2c1-c1ccc(C)cc1 [Ex. 29, 4-(5-(pyrimidin-5-yl)-3-p-tolylbenzofuran-2-yl)butan-2-one, di HCl Salt]
0.364 µM | COc1cccc(-c2ccc3oc(CCC(C)=O)c(-c4ccc(C)o4)c3c2)c1 [Ex. 5, 4-(5-(3-Methoxyphenyl)-3-(5-methylfuran-2-yl)benzofuran-2-yl)butan-2-one]
11.8 µM | CC(=O)CCc1oc2cc(-c3cccnc3)ccc2c1-c1ccc(C)o1 [Ex. 24, 4-(3-(5-methylfuran-2-yl)-6-(pyridin-3-yl)benzofuran-2-yl)butan-2-one]
7.57 µM | CC(=O)CCc1oc2cc(-c3ccncc3)ccc2c1-c1ccc(C)o1 [Ex. 22, 4-(3-(5-Methylfuran-2-yl)-6-(pyridin-4-yl)benzofuran-2-yl)butan-2-one]
22.5 µM | Cc1ccc(-c2c(CCC(=O)O)oc3ccc(Br)cc23)o1 [Ex. 12, 3-[5-Bromo-3-(5-methyl-furan-2-yl)-benzofuran-2-yl]-propionic Acid]
7.18 µM | COc1cc(-c2ccc3c(-c4ccc(C)o4)c(CCC(C)=O)oc3c2)ccn1 [Ex. 23, 4-(6-(2-Methoxypyridin-4-yl)-3-(5-methylfuran-2-yl)benzofuran-2-yl)butan-2-one]
17.5 µM | COc1ccc(-c2ccc3c(-c4ccc(C)o4)c(CCC(C)=O)oc3c2)cn1 [Ex. 28, 4-(6-(6-Methoxypyridin-3-yl)-3-(5-methylfuran-2-yl)benzofuran-2-yl)butan-2-one]
3.23 µM | Cc1ccc(-c2c(CCC(=O)N3CCC(O)CC3)oc3ccc(Br)cc23)o1 [Ex. 13, 3-[5-Bromo-3-(5-methyl-furan-2-yl)-benzofuran-2-yl]-1-(4-hydroxy-piperidin-1-yl)-propan-1-one]
4.27 µM | COc1ccc(-c2ccc3oc(CCC(C)=O)c(-c4ccc(C)o4)c3c2)cn1 [Ex. 2, 4-(5-(6-Methoxypyridin-3-yl)-3-(5-methylfuran-2-yl)benzofuran-2-yl)butan-2-one]
24.1 µM | CC(=O)CCc1oc2ccc(-c3cccc(O)c3)cc2c1-c1ccc(C)o1 [Ex. 4, 4-(5-(3-Hydroxyphenyl)-3-(5-methylfuran-2-yl)benzofuran-2-yl)butan-2-one]
1.32 µM | Cc1ccc(-c2c(CCC(C)(C)O)oc3ccc(Br)cc23)o1 [Ex. 15, 4-(5-Bromo-3-(5-methylfuran-2-yl)benzofuran-2-yl)-2-methylbutan-2-ol]
5.57 µM | CC(=O)CCc1oc2ccc(-c3cccs3)cc2c1-c1ccc(C)o1 [Ex. 8, 4-(3-(5-Methylfuran-2-yl)-5-(thiophen-2-yl)benzofuran-2-yl)butan-2-one]
9.28 µM | CC(=O)CCc1oc2cc(-c3cccnc3)ccc2c1-c1ccc(F)cc1 [Ex. 31, 4-(3-(4-fluorophenyl)-6-(pyridin-3-yl)benzofuran-2-yl)butan-2-one HCl Salt]
20.4 µM | CC(=O)CCc1oc2cc(-c3cncnc3)ccc2c1-c1ccc(C)o1 [Ex. 30, 4-(3-(5-methylfuran-2-yl)-6-(pyrimidin-5-yl)benzofuran-2-yl)butan-2-one, di HCl Salt]
37.1 µM | CC(=O)CCc1oc2ccc(-c3cccnc3)cc2c1-c1ccc(C)o1 [Ex. 3, 4-(3-(5-Methylfuran-2-yl)-5-(pyridin-3-yl)benzofuran-2-yl)butan-2-one]
